According to patent US7939064B2 (priority 2006, dated 2011):

System: transient cerebral focal ischemia (left middle cerebral artery occlusion)
Settings: rat, in vivo

**Q.** For `C[C@]12N[C@H](Cc3ccccc31)c1ccccc12` [MK801, dizocilpine, reference compound], which “infarct volume relative to saline-treated control” value is on record?
**A.** The value was 61.1%±8.6%.

**Q.** And the “reduction of focal ischemia / infarct size (summary statement)” value?
**A.** Its value is 40%.
